Measurements as given in ChEMBL document CHEMBL1201862, “PubChem BioAssay data set” (2004).
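Interpolation was linear, between the two tested concentrations surrounding the appropriate level; five concentrations were tested over 48 hours in 96-well plates. GI50 is the concentration that inhibits growth by half.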 Active and inactive are the calls of the source. Rule as the data show it: active = GI50 up to about 1.1 µM and inactive = higher.

How the values were obtained:
Experiment in all cases: NCI-60 cell line screen, 48 h
[1] = tested on: OVCAR-3
[2] = tested on: Hs-578T
[3] = tested on: RPMI-8226
[4] = tested on: MDA-MB-435
[5] = tested on: A549
[6] = tested on: MDA-N
[7] = tested on: UACC-62
[8] = tested on: SK-MEL-28
[9] = tested on: NCI-H460
[10] = tested on: M14
[11] = tested on: SK-OV-3
[12] = tested on: 786-0
[13] = tested on: DU-145
[14] = tested on: SNB-19
[15] = tested on: OVCAR-5
[16] = tested on: HOP-92
[17] = tested on: T47D
[18] = tested on: OVCAR-4
[19] = tested on: SR

Measured: GI50

Clc1ccc(-c2nc3ccc4ccccc4c3c3c2CCCC3)cc1
inactive: [1] > 100 µM | [2] > 100 µM | [3] > 100 µM | [4] > 100 µM | [5] 63.4 µM | [6] > 100 µM | [7] > 100 µM | [8] > 100 µM | [9] 97.3 µM | [10] > 100 µM | [11] > 100 µM | [12] 75.2 µM | [13] > 100 µM | [14] > 100 µM | [15] 1.55 µM

OCC(O)COCn1cc(Cn2ncc3c(SCc4ccccc4)ncnc32)nn1 (centres undefined)
inactive: [1] > 100 µM | [3] > 100 µM | [16] > 100 µM | [4] > 100 µM | [5] > 100 µM | [7] > 100 µM | [8] > 100 µM | [10] > 100 µM | [11] > 100 µM | [12] > 100 µM | [13] > 100 µM | [17] > 100 µM | [14] > 100 µM | [15] > 100 µM | [18] > 100 µM

COc1cc2nc(-c3cccs3)nc(N3C(c4ccc(O)cc4)=NNC(=O)c4ccccc43)c2cc1OC
inactive: [2] 42.9 µM | [3] 15 µM | [4] 26.2 µM | [5] 55.6 µM | [7] 20.5 µM | [8] 25.4 µM | [9] 26.5 µM | [10] 29.5 µM | [11] 38 µM | [12] 52.8 µM | [13] 4.54 µM | [17] 29.2 µM | [14] 35.6 µM | [15] 28.8 µM | [18] 28.8 µM

Cc1c(N2C(=O)C(Cl)C2c2ccc(Cl)cc2)c(=O)n(-c2ccccc2)n1C (centres undefined)
inactive: [1] 75.3 µM | [3] 16 µM | [16] 60.5 µM | [4] 23.4 µM | [19] 26.4 µM | [5] > 100 µM | [6] 30 µM | [7] 75.2 µM | [9] > 100 µM | [10] 62.7 µM | [11] > 100 µM | [12] 33.1 µM | [13] > 100 µM | [17] 88.3 µM | [15] > 100 µM | [18] > 100 µM

[O-][S+](Nc1ccccc1)c1cccc(Cl)c1 (centres undefined)
inactive: [1] > 100 µM | [2] 86.3 µM | [3] 43.5 µM | [4] 72.1 µM | [19] 25.5 µM | [5] 39.7 µM | [6] > 100 µM | [8] 68.5 µM | [9] 42.5 µM | [10] > 100 µM | [12] > 100 µM | [13] 75 µM | [14] > 100 µM | [15] > 100 µM

CC1CNC(NS(=O)(=O)c2cc(C(=O)Nc3ccc(Cl)cc3)c(Cl)cc2S)=NN1 (centres undefined)
inactive: [1] 28.2 µM | [3] 28.9 µM | [4] 23.4 µM | [19] 27.2 µM | [5] 28.6 µM | [6] 27.3 µM | [7] 29.2 µM | [8] 22.3 µM | [9] 38.5 µM | [10] 21.7 µM | [11] 59.4 µM | [12] 42.1 µM | [13] 30.2 µM | [14] 35.1 µM | [15] 38.5 µM | [18] 28.6 µM

O=C(/N=N/c1ccccc1Br)NNc1ccccc1Br
inactive: [1] 86.3 µM | [3] 33.8 µM | [4] 84.5 µM | [19] 32.8 µM | [5] 64.9 µM | [6] 55.8 µM | [7] 48.8 µM | [8] 53.7 µM | [9] 70.3 µM | [10] 60.8 µM | [12] 72.1 µM | [13] > 100 µM | [17] 13.7 µM | [14] > 100 µM | [15] > 100 µM | [18] 56.2 µM

O=C(NC1(C(=O)NNc2nnc(-c3ccccc3)c(-c3ccccc3)n2)C(c2ccccc2)C(c2ccccc2)=NN1c1ccccc1)c1ccccc1 (centres undefined)
inactive: [1] > 100 µM | [2] > 100 µM | [16] 73.1 µM | [4] > 100 µM | [19] > 100 µM | [5] > 100 µM | [7] > 100 µM | [9] > 100 µM | [10] > 100 µM | [11] > 100 µM | [12] > 100 µM | [13] > 100 µM | [17] > 100 µM | [14] > 100 µM | [15] > 100 µM | [18] > 100 µM

CCOC(C[C@H](O[Si](C)(C)C(C)(C)C)[C@H]1COC(=S)S1)OCC
inactive: [1] 59.4 µM | [3] 32.1 µM | [19] 41.7 µM | [5] 70.5 µM | [8] > 100 µM | [9] 53.6 µM | [10] 52.1 µM | [12] > 100 µM | [14] 28.8 µM

[N-]=[N+]=CC(=O)OCC1SCCCS1
inactive: [1] > 100 µM | [3] > 100 µM | [16] > 100 µM | [4] > 100 µM | [19] > 100 µM | [6] > 100 µM | [7] > 100 µM | [8] > 100 µM | [9] 74.6 µM | [11] > 100 µM | [12] > 100 µM | [13] > 100 µM | [14] > 100 µM | [15] > 100 µM | [18] > 100 µM

CN(C)c1ccc(-c2c(C#N)c(S)n(NS(=O)(=O)c3ccccc3)c(=O)c2C#N)cc1
inactive: [1] 36.6 µM | [3] 13.9 µM | [16] 25 µM | [4] 21.5 µM | [19] 10 µM | [5] 37.9 µM | [6] 25 µM | [7] 20.5 µM | [8] 36.1 µM | [10] 27.6 µM | [11] 59.6 µM | [12] 17.1 µM | [13] 63.5 µM | [14] 48.1 µM | [15] 55.6 µM | [18] 25.6 µM

Nc1nc(N)nc(-c2cnccn2)n1
inactive: [1] > 100 µM | [16] > 100 µM | [4] > 100 µM | [19] > 100 µM | [5] > 100 µM | [7] > 100 µM | [8] > 100 µM | [9] > 100 µM | [10] > 100 µM | [11] > 100 µM | [12] > 100 µM | [13] > 100 µM | [17] > 100 µM | [14] > 100 µM | [15] 57.1 µM

O=C1CCCC2=C1C(c1ccc3c(c1)OCO3)Nc1ccc3ccccc3c12 (centres undefined)
inactive: [1] > 100 µM | [2] 41.3 µM | [3] > 100 µM | [4] > 100 µM | [5] > 100 µM | [6] 87.1 µM | [7] > 100 µM | [8] > 100 µM | [9] > 100 µM | [10] > 100 µM | [11] > 100 µM | [12] > 100 µM | [13] > 100 µM | [14] > 100 µM | [15] > 100 µM

O=C(O)c1cnc2[nH]ccn2c1=O
inactive: [1] > 100 µM | [3] > 100 µM | [16] > 100 µM | [4] > 100 µM | [19] > 100 µM | [5] > 100 µM | [6] > 100 µM | [7] > 100 µM | [8] > 100 µM | [9] > 100 µM | [10] > 100 µM | [11] > 100 µM | [12] > 100 µM | [13] > 100 µM | [17] > 100 µM | [14] > 100 µM | [15] > 100 µM | [18] > 100 µM

c1ccc(NC2(c3nnnn3C3CCCCC3)CCNCC2)cc1
inactive: [2] 14.1 µM | [3] 22.9 µM | [16] 6.01 µM | [4] 19.4 µM | [19] 17.5 µM | [5] 32.4 µM | [7] 18.3 µM | [8] 17.9 µM | [9] 15.2 µM | [10] 17.6 µM | [11] 26 µM | [12] 15 µM | [13] 37 µM | [17] 23.1 µM | [14] 17.5 µM | [15] 14.9 µM | [18] 49.8 µM

CCOP(=O)(OCC)C1=C(c2ccccc2)OC(N)=C(C#N)C1c1ccc(Cl)cc1 (centres undefined)
inactive: [1] > 100 µM | [3] > 100 µM | [16] > 100 µM | [4] > 100 µM | [19] > 100 µM | [5] > 100 µM | [6] > 100 µM | [7] > 100 µM | [8] > 100 µM | [9] > 100 µM | [10] > 100 µM | [11] > 100 µM | [12] > 100 µM | [13] > 100 µM | [17] > 100 µM | [14] > 100 µM | [15] > 100 µM | [18] > 100 µM

O=C1NC(c2ccc3ccccc3c2)Nc2ccccc21 (centres undefined)
inactive: [2] 57.4 µM | [3] 29.9 µM | [16] 36.7 µM | [4] 3.12 µM | [19] 5.83 µM | [7] 21.9 µM | [8] > 100 µM | [9] 25.3 µM | [10] 35.9 µM | [11] 53.5 µM | [12] 45.7 µM | [13] 49.5 µM | [17] 71.4 µM | [14] 51.8 µM | [18] 58.5 µM

CC(=O)OC1CCC2OOC1O2 (centres undefined)
inactive: [1] > 100 µM | [3] > 100 µM | [19] > 100 µM | [5] > 100 µM | [7] > 100 µM | [8] > 100 µM | [9] > 100 µM | [10] > 100 µM | [11] > 100 µM | [12] > 100 µM | [14] > 100 µM | [15] > 100 µM | [18] > 100 µM
